Test results: patent publication US10344053B2, “Inhibitors for inhibiting tumor metastasis” (Forschungsverbund Berlin e.V., priority 2014, dated 2019)
One block for each compound: values may come before it.

Assays:
EVH-1 domain [1] = assay: Binding affinity to EVH-1 domain by fluorescence titration (FT), Table 1; conditions: for Kd: EVH-1 domain; for FT ΔG: free enthalpy of protein-ligand complex
Experimental: (§1) The substitution of the diproline units of the FPPPP motif with the Fmoc-ProMs was carried out. The binding affinities of the ligands to the domain were subsequently determined by means of isothermal titration calorimetry (ITC) on the basis of the dissociation constant (Kd) or the free enthalpy (ΔG) of the protein-ligand complexes. The results of the measurements were additionally checked by means of fluorescence titration (FT). A stronger binding of the respective ligand is expressed by a smaller value for Kd or a more negative value for ΔG. The correlation between the dissociation constant (Kd) and the free enthalpy (ΔG) is illustrated with the following equations: […]

EVH-1 domain [2] = assay: Binding affinity to EVH-1 domain by isothermal titration calorimetry (ITC), Table 1; conditions: for Kd / ITC ΔG: ITC; for Kd: EVH-1 domain; for ITC ΔG: free enthalpy of protein-ligand complex
Experimental: as §1

EnaH-EVH1 [3] = biological target: T1, EnaH-EVH1 (Homo sapiens, UniProt Q8N8S7); assay: Binding affinity by ITC, EnaH-EVH1
T1 construct: VASP-EVH-1, EnaH-EVH-1 and EVL-EVH-1 domain
T1 sequence (Q8N8S7 1-111 limits assumed): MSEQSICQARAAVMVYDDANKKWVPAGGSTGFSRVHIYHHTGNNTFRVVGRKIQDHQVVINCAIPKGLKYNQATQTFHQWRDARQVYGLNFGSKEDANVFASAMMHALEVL
Experimental: as §1
(§2) A further analysis to test the dissociation constant (Kd) of a variety of other compounds was carried out by means of FT and ITC.

VASP-EVH1 [4] = biological target: T2, VASP-EVH1 (Homo sapiens, UniProt P50552); assay: Binding affinity by FT, VASP-EVH1
T2 construct: VASP-EVH-1, EnaH-EVH-1 and EVL-EVH-1 domain
T2 sequence (P50552 2-113 limits assumed): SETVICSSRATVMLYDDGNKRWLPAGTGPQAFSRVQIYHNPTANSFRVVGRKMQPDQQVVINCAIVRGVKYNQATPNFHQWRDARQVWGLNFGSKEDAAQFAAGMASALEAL
Experimental: as §1, §2

EnaH-EVH1 [5] = biological target: T1, EnaH-EVH1; assay: Binding affinity by FT, EnaH-EVH1
Experimental: as §1, §2

EVL-EVH1 [6] = biological target: T3, EVL-EVH1 (Homo sapiens, UniProt Q9UI08); assay: Binding affinity by FT, EVL-EVH1
T3 construct: VASP-EVH-1, EnaH-EVH-1 and EVL-EVH-1 domain
T3 sequence (Q9UI08 1-112 limits assumed): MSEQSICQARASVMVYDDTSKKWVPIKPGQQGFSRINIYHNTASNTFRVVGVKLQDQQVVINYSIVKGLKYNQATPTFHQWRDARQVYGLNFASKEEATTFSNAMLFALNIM
Experimental: as §1, §2

VASP-EVH1 [7] = biological target: T2, VASP-EVH1; assay: Binding affinity by ITC, VASP-EVH1
Experimental: as §1, §2

ena/VASP-EVH1 = assay: Inhibition of ena/VASP-EVH1-mediated protein-protein interactions, affinity for the target (statements in words); type: binding; conditions: result in words
EVL-EVH1 [8] = biological target: T3, EVL-EVH1; assay: Binding affinity by ITC, EVL-EVH1
Experimental: as §1, §2

in vitro [9] = type: in vitro ADME; conditions: mouse, microsomes
in vitro [10] = type: in vitro ADME; conditions: for Plasma stability, % remaining (Tlast 240 min): 4 h; for half-life: plasma
Experimental: An in vitro assay was performed in the plasma of mice and humans.

in vitro [11] = conditions: human, human plasma
in vitro [12] = conditions: mouse, mouse plasma
in vitro [13] = type: in vitro ADME; conditions: human, microsomes
cells = assay: Cellular toxicity; type: cell-based; conditions: result in words
Description: FIG. 2: Cellular toxicity of the compound in accordance with Formula III.
The low or absent cellular toxicity likewise constitutes a surprising and advantageous property of the compounds. The inventive compounds bind to the target receptor not only with very low dissociation constants, but also with high specificity. For medical use of the compounds this is to be considered as an advantage.

[14] = test system: MDA MB 231 breast cancer cells; assay: Matrigel migration assay (chemotaxis and motility); type: cell-based; conditions: relative to the baseline value (DMSO/no FBS gradient)
Experimental: FIG. 1: Inhibition of the chemotaxis and motility of highly invasive tumor cells in a matrigel migration assay.
Cell culture experiments were performed with MDA MB 231 breast cancer cells.
Example Compound III inhibits the migration of MDA MB 231 breast cancer cells by more than 90% relative to the baseline value (DMSO/no FBS gradient) (FIGS. 1 A and B).

VASP-EVH1 [15] = biological target: T2, VASP-EVH1; assay: Binding data to VASP-EVH1 (text, method not stated); conditions: text b160
target cells = assay: Cell experiments: absorption of the compound by target cells; type: cell-based; conditions: ester derivative versus carboxylic acid ligand; result in words
Description: Within the framework of cell experiments it could further be shown that, by replacing the carboxylic acid ligand with the ester derivative (NBD-Phe(2-CI)-[ProM-2][ProM-1]-OEt), the ability of the compound to be absorbed by the target cells could be improved. The absorption of the substance in the cell could thus be increased, without loss of the advantageous binding properties.

Kd (EVH-1 domain [1]): 2.7 µM
FT ΔG (EVH-1 domain [1]): -7.6 kcal/mol
improvement of the binding affinity by a factor (FT) (EVH-1 domain [1]; in comparison to Ac-Phe(2-CI)-PP[ProM-1]-OH): 1.2
Kd (EVH-1 domain [2]): 3.8 µM
ITC ΔG (EVH-1 domain [2]): -7.41 kcal/mol
Compound: CC(=O)NC(Cc1ccccc1Cl)C(=O)N1CCCC12C=CC1CCC(C(=O)N3CCC4C=CC5CCC(C(=O)O)N5C(=O)C43)N1C2=O (stereo not shown) [Ac-Phe(2-Cl)-[ProM-2][ProM-1]-OH, Ac-Phe(2-CI)-[ProM-2]-[ProM-1]-OH]

Kd (EVH-1 domain [1]): 0.28 µM
FT ΔG (EVH-1 domain [1]): -8.94 kcal/mol
Kd (EVH-1 domain [2]): 0.69 µM
ITC ΔG (EVH-1 domain [2]): -8.41 kcal/mol
free enthalpy (Gibbs free energy) gain ΔΔG over the ligand optimization (EVH-1 domain [2]; determined by means of ITC, overall progression from the wild-type ligand): -3.8 kcal/mol
Compound: CC(=O)NC(Cc1ccccc1Cl)C(=O)N1CCCC12C=CC1CCC(C(=O)N3CCC4C=CC5C(C)CC(C(=O)O)N5C(=O)C43)N1C2=O (stereo not shown) [Ac-Phe(2-Cl)-[ProM-2][ProM-9]-OH]

Compound: CCOC(=O)[C@@H]1C[C@@H](CC)[C@@H]2C=C[C@H]3CCN(C(=O)[C@@H]4CC[C@H]5C=C[C@]6(CCCN6C(=O)[C@H](Cc6ccccc6Cl)NC(C)=O)C(=O)N54)[C@@H]3C(=O)N12 [Ac[2-Cl—F][ProM-2][ProM-13]-OEt, Ac-Phe(2-CI)-[ProM-2][ProM-13]-OEt]
Kd (EnaH-EVH1 [3]): 0.31 µM
Kd (VASP-EVH1 [4]): 0.4 µM
Kd (EnaH-EVH1 [5]): 0.18 µM
Kd (EVL-EVH1 [6]): 0.13 µM
Kd (VASP-EVH1 [7]): 0.49 µM
affinity for the target (ena/VASP-EVH1): particularly strong affinity
Kd (EVL-EVH1 [8]): 0.28 µM

Kd (EnaH-EVH1 [3]): 7.8 µM
half-life (in vitro [9]): > 1 h
microsomal CLint (in vitro [9]): 35.6 µL/min/mg
Plasma stability, % remaining (Tlast 240 min) (in vitro [10]; human): 95.5%
half-life (in vitro [10]; human): > 4 h
Plasma stability, % remaining (Tlast 240 min) (in vitro [10]; mouse): 87.4%
half-life (in vitro [10]; mouse): > 4 h
fraction unbound (in vitro [11]): 0.924
Kd (VASP-EVH1 [4]): 6.2 µM
Kd (EnaH-EVH1 [5]): 4.1 µM
fraction unbound (in vitro [12]): 0.981
Kd (EVL-EVH1 [6]): 4.1 µM
Kd (VASP-EVH1 [7]): 9.4 µM
Kd (EVL-EVH1 [8]): 5.8 µM
half-life (in vitro [13]): > 1 h
microsomal CLint (in vitro [13]): 26.4 µL/min/mg
Compound: CCOC(=O)C1CCC2C=CC3CCN(C(=O)C4CCC5C=CC6(CCCN6C(=O)C(Cc6ccccc6Cl)NC(C)=O)C(=O)N54)C3C(=O)N21 (stereo not shown) [Compound 4D, Ac-Phe(2-CI)-[ProM-2][ProM-1]-OEt]

Compound: CCOC(=O)[C@@H]1C[C@@H](C)[C@@H]2C=C[C@H]3CCN(C(=O)[C@@H]4CC[C@H]5C=C[C@]6(CCCN6C(=O)[C@H](Cc6ccccc6Cl)NC(C)=O)C(=O)N54)[C@@H]3C(=O)N12 [Compound III]
cellular toxicity (cells): non-toxic to cells
inhibition of migration of MDA MB 231 breast cancer cells [14]: more than 90%
Kd (VASP-EVH1 [15]): 0.28 µM
inhibition of ena/VASP-EVH1-mediated protein-protein interactions (ena/VASP-EVH1): selectively inhibit

Compound: CC(=O)N[C@@H](CO)C(=O)N[C@@H](Cc1ccccc1)C(=O)N[C@@H](CCC(=O)O)C(=O)N[C@@H](Cc1ccccc1)C(=O)N1CCC[C@H]1C(=O)N1CCC[C@H]1C(=O)N1CCC[C@H]1C(=O)N1CCC[C@H]1C(=O)N[C@H](C(=O)N[C@@H](CCC(=O)O)C(=O)N[C@@H](CC(=O)O)C(=O)N[C@@H](CCC(=O)O)C(=O)N[C@@H](CC(C)C)C(N)=O)[C@@H](C)O [reference compound]
Kd (EVH-1 domain [2]): 20 µM

Liver microsomal stability Clint (in vitro [9]): 34.0 μl/min/mg protein
Liver microsomal stability t½ (in vitro [9]): >1 h
Plasma stability, % remaining (Tlast 240 min) (in vitro [10]; human): 80.3%
Plasma stability, % remaining (Tlast 240 min) (in vitro [10]; mouse): 94.7%
Liver microsomal stability Clint (in vitro [13]): 11.6 μl/min/mg protein
Liver microsomal stability t½ (in vitro [13]): >1 h
Compound: Ac-Phe(2-CI)-[ProM-2][ProM-1]-NH2 [Compound 4C]

Kd (EVH-1 domain [1]): 13 µM
FT ΔG (EVH-1 domain [1]): -6.64 kcal/mol
Kd (EVH-1 domain [2]): 18 µM
ITC ΔG (EVH-1 domain [2]): -6.45 kcal/mol
Compound: Ac-Phe(2-Cl)-PPPP-OH

Kd (EVH-1 domain [1]): 3.2 µM
FT ΔG (EVH-1 domain [1]): -7.5 kcal/mol
Kd (EVH-1 domain [2]): 14.1 µM
ITC ΔG (EVH-1 domain [2]): -6.62 kcal/mol
Compound: Ac-Phe(2-Cl)-PP[ProM-1]-OH

Kd (EVH-1 domain [1]): 0.4 µM
FT ΔG (EVH-1 domain [1]): -8.77 kcal/mol
Kd (EVH-1 domain [2]): 8 µM
ITC ΔG (EVH-1 domain [2]): -6.96 kcal/mol
Compound: Ac-Phe(2-Cl)-PP[ProM-9]-OH

Kd (EVH-1 domain [1]): 1.6 µM
FT ΔG (EVH-1 domain [1]): -7.91 kcal/mol
Kd (EVH-1 domain [2]): 9.7 µM
ITC ΔG (EVH-1 domain [2]): -6.84 kcal/mol
Compound: Ac-Phe(2-Cl)-[ProM-2][ProM-4]-OH

Compound: NBD-Phe(2-CI)-[ProM-2]-[ProM-1]-OEt [NBD-Phe(2-CI)-[ProM-2][ProM-1]-OEt]
ability to be absorbed by the target cells (target cells): improved
